According to the supplement of paper PMC10307832:

Tests used:
Assay in all cases: relative viability (nuclei count vs DMSO), 5 days (fraction); higher = more cells survive
4EGI-1 + Linsitinib = compound: O=C(O)C(Cc1ccccc1[N+](=O)[O-])=NNc1nc(-c2ccc(Cl)c(Cl)c2)cs1 (mixture of isomers) [4EGI-1] + C[C@]1(O)C[C@@H](c2nc(-c3ccc4ccc(-c5ccccc5)nc4c3)c3c(N)nccn32)C1 [Linsitinib] (partner 1 µM)
In short: (§1)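 Lung cancer cell lines were pin-tool dosed in 1536-well plates on the day after seeding, with either a lone drug or a fixed anchor-drug dose plus five library-drug doses (not always all listed) in √10 steps. Nuclei were counted on 4× images after 5 days. Relative viability is the ratio of treated-well to vehicle-well nuclei counts, with each value a median of duplicate plates.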

XMD8-85 + Decitabine = compound: CN1CCN(CC1)C2=CC(=C(C=C2)NC3=NC=C4C(=N3)N(C5=CC=CC=C5C(=O)N4C)C)OC [XMD8-85] + Nc1ncn([C@H]2C[C@H](O)[C@@H](CO)O2)c(=O)n1 [Decitabine] (partner 2 µM)
In short: as §1

XMD8-85 + Luminespib = compound: CN1CCN(CC1)C2=CC(=C(C=C2)NC3=NC=C4C(=N3)N(C5=CC=CC=C5C(=O)N4C)C)OC [XMD8-85] + CCNC(=O)c1noc(-c2cc(C(C)C)c(O)cc2O)c1-c1ccc(CN2CCOCC2)cc1 [Luminespib] (partner 0.01 µM)
In short: as §1

XMD8-85 + Phenformin = compound: CN1CCN(CC1)C2=CC(=C(C=C2)NC3=NC=C4C(=N3)N(C5=CC=CC=C5C(=O)N4C)C)OC [XMD8-85] + N=C(N)NC(=N)NCCc1ccccc1 [Phenformin] (partner 250 µM)
In short: as §1

| Cell Line | relative viability (4EGI-1 + Linsitinib; first compound 0.5 µM) | relative viability (4EGI-1 + Linsitinib; first compound 1.581 µM) | relative viability (4EGI-1 + Linsitinib; first compound 5 µM) | relative viability (4EGI-1 + Linsitinib; first compound 15.81 µM) | relative viability (4EGI-1 + Linsitinib; first compound 50 µM) | relative viability (XMD8-85 + Decitabine; first compound 0.08 µM) | relative viability (XMD8-85 + Decitabine; first compound 0.253 µM) | relative viability (XMD8-85 + Decitabine; first compound 0.8 µM) | relative viability (XMD8-85 + Decitabine; first compound 2.53 µM) | relative viability (XMD8-85 + Decitabine; first compound 8 µM) | relative viability (XMD8-85 + Luminespib; first compound 0.08 µM) | relative viability (XMD8-85 + Luminespib; first compound 0.253 µM) | relative viability (XMD8-85 + Luminespib; first compound 0.8 µM) | relative viability (XMD8-85 + Luminespib; first compound 2.53 µM) | relative viability (XMD8-85 + Luminespib; first compound 8 µM) | relative viability (XMD8-85 + Phenformin; first compound 0.08 µM) | relative viability (XMD8-85 + Phenformin; first compound 0.253 µM) | relative viability (XMD8-85 + Phenformin; first compound 0.8 µM) | relative viability (XMD8-85 + Phenformin; first compound 2.53 µM) | relative viability (XMD8-85 + Phenformin; first compound 8 µM) |
| --- | --- | --- | --- | --- | --- | --- | --- | --- | --- | --- | --- | --- | --- | --- | --- | --- | --- | --- | --- | --- |
| BEN | 1.02 | 1.03 | 1.02 | 0.808 | 0.729 | 0.761 | 0.671 | 0.757 | 0.66 | 0.483 | 0.248 | 0.333 | 0.851 | 0.357 | 0.317 | 0.275 | 0.266 | 0.267 | 0.306 | 0.258 |
| SK-MES-1 | 1.12 | 1.07 | 1.1 | 0.887 | 0.987 | 0.348 | 0.353 | 0.39 | 0.39 | 0.3 | 0.823 | 0.768 | 0.779 | 0.655 | 0.409 | 0.699 | 0.624 | 0.645 | 0.643 | 0.427 |
| NCI-H1623 |  |  |  |  |  |  |  |  |  |  | 0.489 | 0.418 | 0.58 | 0.42 | 0.489 | 0.611 | 0.584 | 0.578 | 0.555 |  |
| IA-LM | 0.536 | 0.492 | 0.649 | 0.251 | 0.163 |  |  |  |  |  |  |  |  |  |  |  |  |  |  |  |
| CAL-12T | 0.87 | 0.598 | 0.922 | 0.779 | 0.859 |  |  |  |  |  | 0.315 | 0.652 | 0.339 | 0.333 | 0.216 | 0.575 | 0.528 | 0.537 | 0.517 | 0.369 |
| ABC-1 | 0.977 | 0.863 | 0.806 | 0.68 | 0.419 | 1.42 | 1.09 | 1.49 | 1.11 | 0.745 |  |  | 0.793 | 0.703 | 0.373 | 0.221 | 0.245 | 0.248 | 0.234 | 0.229 |
| LCLC-97TM1 | 0.161 |  | 0.203 | 0.198 | 0.165 | 0.222 | 0.206 | 0.204 | 0.284 | 0.195 | 0.715 | 0.87 | 0.833 | 0.813 | 0.85 | 0.412 | 0.412 | 0.451 | 0.471 | 0.45 |
| PC-14 | 1.01 | 0.741 | 0.983 |  | 0.94 | 0.275 | 0.276 | 0.223 | 0.162 | 0.133 | 0.14 | 0.167 | 0.179 | 0.154 | 0.134 | 0.524 | 0.66 | 0.575 | 0.611 | 0.193 |
| NCI-H23 | 0.718 |  | 0.704 | 0.629 | 0.496 | 0.306 | 0.316 | 0.349 | 0.32 | 0.267 | 0.207 | 0.234 | 0.214 | 0.199 | 0.193 | 0.797 | 0.791 | 0.806 | 0.694 | 0.774 |
| NCI-H727 | 0.337 | 0.286 | 0.268 | 0.229 | 0.301 | 0.867 | 1.04 | 0.84 | 0.894 | 0.643 | 0.431 | 0.527 | 0.359 | 0.322 | 0.344 | 0.503 | 0.547 | 0.523 | 0.524 | 0.456 |
| A549 | 0.825 |  | 0.573 | 0.579 | 0.611 | 0.296 | 0.252 | 0.237 | 0.369 | 0.384 |  |  |  |  |  | 0.0975 | 0.198 | 0.149 | 0.274 | 0.193 |
| COR-L 105 | 1.04 | 0.85 | 0.999 | 0.988 | 0.675 |  | 0.731 | 0.7 | 0.537 | 0.466 | 0.99 | 0.842 | 0.645 |  | 0.272 | 0.406 | 0.445 | 0.453 | 0.432 | 0.248 |
| NCI-H650 | 0.996 |  | 1.24 | 0.915 | 0.732 | 0.336 | 0.3 | 0.354 | 0.309 | 0.324 | 0.892 | 0.862 | 0.773 | 0.82 | 0.639 |  | 0.44 | 0.439 | 0.436 | 0.306 |
| NCI-H1975 | 0.902 | 0.941 | 1.01 | 1.01 | 0.698 | 0.392 | 0.359 | 0.382 | 0.328 | 0.35 | 0.398 | 0.188 | 0.207 | 0.236 | 0.152 | 0.402 | 0.409 | 0.446 | 0.464 | 0.312 |
| NCI-H2023 | 0.75 |  | 0.562 | 0.388 | 0.135 | 0.176 | 0.198 | 0.25 | 0.244 | 0.227 | 0.406 | 0.751 |  | 0.649 | 0.407 | 0.347 | 0.398 | 0.422 | 0.355 | 0.327 |
